Measurements as given in ChEMBL document CHEMBL3352773, “Synthesis and evaluation of the 2,4-diaminoquinazoline series as anti-tubercular agents” (Bioorg Med Chem, 2014).

How the values were obtained:
Assay type in all cases: functional
[1] = test system: Mycobacterium tuberculosis; experiment: Antituberculosis activity against Mycobacterium tuberculosis H37Rv RM7 C115W mutant assessed as complete growth inhibition after 5 days
[2] = test system: Mycobacterium tuberculosis; experiment: Antituberculosis activity against Mycobacterium tuberculosis H37Rv RM1 IS6110 at nt 801 mutant assessed as complete growth inhibition after 5 days
[3] = test system: Mycobacterium tuberculosis; experiment: Antituberculosis activity against Mycobacterium tuberculosis H37Rv RM2 GT deletion at 175 to 176 mutant assessed as complete growth inhibition after 5 days

Measured: MIC

FC(F)(F)c1ccc(CNc2nc(N3CCCCC3)nc3ccccc23)cc1
25 µM: all assays above
